In publication PMC4019984, “Kinase and channel activity of TRPM6 are co-ordinated by a dimerization motif and pocket interaction” (Biochemical Journal, 2014):

What was measured:
[1] = tested on: full-length TRPM6 L1718A+L1721A; test: Peptide pull-down, full-length TRPM6 L1718A+L1721A; assay type: binding, human; settings: full-length L1718A+L1721A TRPM6, HEK-293 lysate, 3 μg peptide, 4°C; anti-FLAG immunoblot
Method: (§1) The peptides biotin-C6-[…]-TIPFTPVQLFAGEEITV (wild-type) and biotin-C6-LKSPQE-[…] (mutant) were purchased from GL Biochem. For a peptide pull-down, 1–5 mg of lysate was incubated with 3 μg of the respective peptide for 10 min at 4°C under gentle agitation, followed by 5 min of incubation with 10–20 μl of streptavidin beads at 4°C. The immunoprecipitates were washed three times with lysis buffer containing 0.15 M NaCl and then twice with buffer A. Proteins were eluted by resuspending washed immunoprecipitates in 30 μl of SDS sample buffer.
(§2) Figure 2 Identification of dimerization motif residues in TRPM6 (A) Structural model of TRPM7 α-kinase depicting the N-terminal non-catalytic α-helix of one monomer that interacts with the kinase segment of the other monomer. (B) Fluorescence polarization analysis of wild-type (WT) and mutant (Mut) dimerization motif peptides with E. coli-purified GST-tagged TRPM6-(1730–end). […] The samples were analysed by immunoblotting with anti-GST antibody (top panel). […] Proteins were separated by SDS/PAGE, stained with Coomassie Blue (top and middle gels) and MBP phosphorylation was detected by autoradiography (bottom gel). […] Proteins were separated by SDS/PAGE, stained with Coomassie Blue (top and middle gels) and MBP phosphorylation was detected by autoradiography (bottom gel). […] The pull-down samples were analysed by immunoblotting with anti-FLAG antibody (top panel). […]

[2] = tested on: GST-tagged TRPM6-(1700–end); test: Phosphorylation site mapping of the dimerization peptide by TRPM6 kinase; assay type: biochemical, human; settings: 500 μM biotinylated peptide, in vitro, trypsin digest, HPLC, Edman solid-phase sequencing
Method: A kinase reaction was set up in a volume of 20 μl, with the wild-type biotinylated dimerization peptide and the active (residues 1700–end) kinase fragment in buffer A containing 0.1% 2-mercaptoethanol, 10 mM MgCl2 and 0.1 mM [γ-^32P]ATP (~1000 cpm·pmol^−1). Assays were carried out for 30 min at 30°C with shaking at […] The reaction was terminated by the addition of LDS sample buffer. DTT was added to a final concentration of 10 mM, the samples were boiled, then alkylated with 50 mM iodoacetamide and subsequently resolved by a Bis-Tris 4–12% polyacrylamide gel, which was stained with Colloidal Coomassie Blue. […] Following tryptic digestion, more than 95% of the ^32P radioactivity incorporated in the gel bands was recovered, and the samples were chromatographed on a Vydac 218TP5215 C18 column (Separations Group) equilibrated in 0.1% trifluoroacetic acid in water. The column was developed with a linear acetonitrile gradient at a flow rate of 0.2 ml/min and fractions of 0.1 ml were collected and analysed for ^32P radioactivity by Cerenkov counting. Isolated phosphopeptides were analysed by MS analysis as follows. […] The five most intense ions, above a specified minimum signal threshold, based on a low-resolution (R=20000) preview of the survey scan, were fragmented by collision-induced dissociation and recorded in the linear ion trap (target value of 5000). […]

[3] = tested on: full-length FLAG-tagged wild-type TRPM6; test: Peptide pull-down, full-length wild-type TRPM6; assay type: binding, human; settings: full-length wild-type TRPM6, HEK-293 lysate, 3 μg peptide, 4°C; anti-FLAG immunoblot
Method: as §1, §2

biotin-C6-LKSPQEPHHHYSAIERNNLMRLSQ-TIPFTPVQLFAGEEITV [biotinylated dimerization motif peptide, biotin-C6 wild-type dimerization motif peptide; conjugated to streptavidin–Sepharose]
interaction with biotinylated dimerization motif peptide (pull-down) [1]: rendered capable of interacting
phosphorylation site in dimerization motif peptide [2]: threonine at position 22
interaction with biotinylated dimerization motif peptide (pull-down) [3]: do not interact
